Source: patent publication US5321130A, “Unsymmetrical cyanine dyes with a cationic side chain” (priority 1992, dated 1994)

Tests used:
[1] = Absorption spectra of free dye in methanol or pH 7.4 buffer; type: physicochemical; conditions: no DNA
Procedure: (§1) The strength of absorption and/or fluorescence is indicated by the extinction coefficient. The maximum extinction coefficient (εmax) for the unbound dyes is calculated from the longest wavelength absorption maximum according to the Beer-Lambert law based on the known concentration of the solutions. The extinction coefficient for the dye bound to DNA is calculated from the change in maximum absorbance compared to the dye in free aqueous solution. Typically the extinction coefficient for both bound and unbound dyes is between about 50,000 M^-1 cm^-1 and about 150,000 M^-1 cm^-1.
(§2) Solutions of Compounds 1-8 are prepared by accurately weighing 5 mg quantities and dissolving in DMSO (dimethylsulfoxide) to give a 1 mg/ml stock solution. These solutions are diluted 200 fold into either methanol or a pH 7.4 buffer solution comprising 10 mM Tris, 1 mM EDTA and 50 mM NaCl. Each absorption spectrum is recorded on an IBM Instruments 9420 spectrophotometer. The absorption maximum for each dye without the presence of nucleic acid polymers (λA) is tabulated (Table 2). To the solutions of Compounds 1-8 in pH 7.4 buffer is added sufficient calf thymus DNA (Sigma Chemical Co. D-1501) stock solution calculated to yield a ratio of 50 DNA base pairs per dye molecule or greater. The absorption maximum for each dye bound to DNA is again tabulated (Table 2). […] Where the spectra are not rescaled, the changes in extinction coefficient and absorption wavelength range accompanying binding to DNA are clearly illustrated (FIG. 2).

calf thymus DNA [2] = experiment: Absorption spectra of dye bound to calf thymus DNA; type: binding; conditions: pH 7.4 + DNA, ratio of 50 DNA base pairs per dye molecule or greater
Procedure: Absorption spectra of solutions of Compounds 1-8 (4 μM) in pH 7.4 buffer (10 mM Tris, 1 mM EDTA and 50 mM NaCl) are recorded on a Perkin-Elmer Lambda 6 spectrophotometer after the addition of sufficient calf thymus DNA (Sigma Chemical Co. D-1501) to yield a ratio of 50 DNA base pairs per dye molecule or greater. The spectra are normalized to a maximum absorbance of 1.0 by numerical rescaling.
The absorption spectrum of Compound 4 in buffer, prepared as for FIG. 1, is recorded on a Perkin-Elmer Lambda 6 spectrophotometer before and after addition of calf thymus DNA. The spectra are not rescaled, illustrating the changes in extinction coefficient and absorption wavelength range accompanying binding to DNA.
as §1, §2

calf thymus DNA [3] = experiment: Fluorescence emission spectra and enhancement on binding to calf thymus DNA; conditions: 0.4 μM dye; for λF (fluorescence maximum), bound to DNA: pH 7.4 + DNA; for Enhancement (QY + DNA)/(QY - DNA): pH 7.4, DNA:fluorophore ratio of 50 bp:1 or greater
Procedure: Fluorescence emission spectra of solutions (0.4 μM) of Compounds 1-8 in pH 7.4 buffer (10 mM Tris, 1 mM EDTA and 50 mM NaCl), after sufficient calf thymus DNA (Sigma Chemical Co. D-1501) is added to yield a ratio of 50 DNA base pairs per dye molecule or greater, are recorded on an Alphascan spectrofluorometer (PTI Inc.) with excitation at approximately (λA -25 nm) where λA is the absorption maximum of the dye bound to DNA (Table 2).
Solutions of each of Compounds 1-8 (0.4 μM) in pH 7.4 buffer (10 mM Tris, 1 mM EDTA and 50 mM NaCl) are prepared as above. Fluorescence emission spectra are recorded on an Alphascan spectrofluorometer (PTI Inc.) with excitation at approximately (λA -25 nm) where λA is the absorption maximum of the dye bound to DNA. After sufficient calf thymus DNA (Sigma Chemical Co. D-1501) is added to yield a ratio of 50 DNA base pairs per dye molecule or greater, fluorescence emission spectra are again recorded (Table 2). The spectra are integrated and enhancement ratio (Table 2) is calculated as follows: [formula] in which the ratio (A-)/(A+) is the ratio of the absorbances for the free and bound dye respectively at the excitation wavelength.

[4] = tested on: DNA of mouse fibroblast 3T3 cells; experiment: Analysis of cellular DNA content (lysed 3T3 cells, fluorescence); type: cell-based
Procedure: Mouse fibroblast 3T3 cells aliquoted into microtiter plates are subjected to a freeze/thaw protocol to lyse cells and release DNA into solution. Compound 3 in TNE buffer is added to each well and the plates are scanned in a Cytofluor 2350 microtiter plate reader (Millipore Corp.) with excitation at 485 nm and emission detected at 530 nm. […] Treatment of half the wells with 20 μg/ml DNAse 1 for one hour at 37° C. in DNAse 1 buffer (10 mM MnCl2, 50 mM TRIS, pH 7.7) eliminates more than 95% of the fluorescence (filled circles).
The method of Rago et al. [Analytical Biochemistry 191, 31 (1990)] is adapted for use with the nucleotide-specific stain Compound 3. 3T3 cells (a mouse fibroblast cell line) are aliquoted into 96-well microtiter plates and allowed to adhere over a period of 4 hours. Cell numbers used are between 100 and 100,000 in 100 μl of Dulbecco's Modified Eagle Medium (DMEM). […]
For fluorescence analysis, 100 μl of distilled water is added to each well and the plates incubated at 37° C. for one hour, frozen at -80° C. then thawed to room temperature. […] 100 μl of 10 μM Compound 3 in TNE buffer (2 M NaCl, 10 mM TRIS, 1 mM EDTA pH 7.4) is added to each well and the plates scanned in a Cytofluor 2350 microtiter plate reader (Millipore Corp.) with excitation at 485 nm and emission detected at 530 nm. […]

calf thymus DNA [5] = experiment: Dye/nucleic acid affinity: partition coefficient Kp by fluorescence titration with DNA; type: binding
Procedure: The fluorescence intensity (F) determined in a fluorescence plate reader (CytoFluor from Millipore Corporation), is measured versus DNA concentration expressed in terms of base pairs concentration (B). […] In all the titrations, [Dye]/[Base Pair] is always […] than 3 to fulfill the requirements of the partition model.
The nucleic acid/water partition coefficient (Kp) representing the relative affinity of the dye for DNA is calculated from the fluorescence data according to the following formula:
1/F=[5.6·10^7 /(Kp Fo)](1/B)+1/Fo
where 5.6·10^7 (μM) is water molar concentration; B is the concentration of base pairs; and Fo is the fluorescence enhancement at saturation. Table 3 gives the Kp values of representative dyes via the partition model in the presence of 10% ethanol.

DNA or RNA = experiment: Optical properties upon binding with DNA or RNA (general statements); conditions: binding to nucleic acid polymers
From the text: The enhanced fluorescence of the dyes in the bound versus unbound state is exemplified in Table 2. In particular, the absorption curve typically shifts to a longer wavelength. Typically, the absorption curve shift is between about 5 and about 20 nm. […] When combined with nucleic acid polymers, the novel dyes of this invention generally have a Stokes shift of between about 15 to about 30 nm. Table 2 includes the excitation and emission maxima (λA and λF respectively) for Compounds 1-8.
The fluorescence of the novel dyes bound to DNA or RNA is enhanced at least about 9 fold. Typically fluorescence is enhanced at least about 100 fold, sometimes as much as 1000 fold or more, depending on the amount and purity of the dye present in the sample (Table 2). This significant increase in fluorescence intensity reduces or eliminates the problem of background fluorescence due to unbound dye, thus avoiding the necessity to separate the unbound dye before measuring the fluorescence. Even where the dyes are intrinsically fairly fluorescent, however, such that the enhancement in fluorescence quantum yield which results from binding to nucleic acid polymers is less than 10 fold (e.g. Compound 5), the significant shift in absorption maxima that results from such binding (see Table 2, FIG. 2) can be used to quantitatively or qualitatively measure the presence of nucleic acid polymers.

Compound	εmax (extinction coefficient) ([1]; methanol)	λA (absorption maximum) ([1]; methanol) [nm]	εmax (extinction coefficient) ([1]; pH 7.4 buffer)	λA (absorption maximum) ([1]; pH 7.4 buffer) [nm]	εmax (extinction coefficient), bound to DNA (calf thymus DNA [2])	λA (absorption maximum), bound to DNA (calf thymus DNA [2]) [nm]	λF (fluorescence maximum), bound to DNA (calf thymus DNA [3]) [nm]	Enhancement (QY + DNA)/(QY - DNA) (calf thymus DNA [3]) [x]	fluorescence eliminated by DNAse 1 treatment ([4]; 20 μg/ml DNAse 1, one hour, 37° C.)	fluorescence versus cell number ([4]; Ex 485 nm, Em 530 nm, TNE buffer)	effect of ethanol on DNA affinity (Kp) (calf thymus DNA [5]; 10% ethanol)	apparent affinity Kp, effect of dye concentration (calf thymus DNA [5]; binding buffer without ethanol, 0.1 vs 0.22 μM dye)	enhancement in fluorescence quantum yield on binding (DNA or RNA)
C[n+]1c(C=C2C=CN(CCC[N+](C)(C)C)C=C2)oc2ccccc21 [Compound 1]	77,500 M^-1 cm^-1	423	75,500 M^-1 cm^-1	423	50,100 M^-1 cm^-1	435	455	456	–	–	–	–	–
C[n+]1c(C=C2C=CN(CCC[N+](C)(C)C)C=C2)sc2ccccc21 [Compound 2]	80,200 M^-1 cm^-1	452	76,200 M^-1 cm^-1	451	58,100 M^-1 cm^-1	462	481	892	–	–	–	–	–
C[n+]1c(C=C2C=CN(CCC[N+](C)(C)C)c3ccccc32)oc2ccccc21 [Compound 3]	72,600 M^-1 cm^-1	482	66,000 M^-1 cm^-1	481	52,013 M^-1 cm^-1	491	509	925	more than 95%	linear increase of fluorescence with cell number	–	–	–
C[n+]1c(C=C2C=CN(CCC[N+](C)(C)C)c3ccccc32)sc2ccccc21 [Compound 4]	73,800 M^-1 cm^-1	507	68,500 M^-1 cm^-1	506	62,800 M^-1 cm^-1	515	531	1806	–	–	ethanol decreases the DNA affinity	larger with 0.1 μM dye than with 0.22 μM	–
C[n+]1c(C=CC=CC=C2C=CN(CCC[N+](C)(C)C)C=C2)oc2ccccc21 [Compound 5]	–	525	–	523	–	532	562	9	–	–	–	–	less than 10 fold
C[n+]1c(C=CC=CC=C2C=CN(CCC[N+](C)(C)C)C=C2)sc2ccccc21 [Compound 6]	–	564	–	560	–	575	599	29	–	–	–	–	–
C[n+]1c(C=CC=C2C=CN(CCC[N+](C)(C)C)c3ccccc32)oc2ccccc21 [Compound 7]	133,100 M^-1 cm^-1	600	122,000 M^-1 cm^-1	596	100,100 M^-1 cm^-1	612	631	155	–	–	–	–	–
C[n+]1c(C=CC=C2C=CN(CCC[N+](C)(C)C)c3ccccc32)sc2ccccc21 [Compound 8]	143,200 M^-1 cm^-1	635	98,200 M^-1 cm^-1	631	102,000 M^-1 cm^-1	642	661	80	–	–	–	–	–
